Results on eight molecules are retold here after ChEMBL document CHEMBL4130387, “Design, synthesis and in vivo study of novel pyrrolidine-based 11β-HSD1 inhibitors for age-related cognitive dysfunction” (Eur J Med Chem, 2017).

Structures are written as SMILES. Activity calls are given as the source filed them. The rule behind the calls is not given here.

The term IC50 denotes the point on the concentration scale where inhibition reaches its midpoint. Higher therefore signals weaker potency in that assay. Usually inhibition stands for the share of the control response that was lost under treatment. Read a high inhibition as a response far below the control. One may read the Tmax as the time at which the peak concentration occurs. The Cmax is the maximum level reached in the sampled fluid or tissue. The term AUC(0-t) denotes exposure summed from dosing to a finite time, without extrapolation to infinity. As a reminder, the AUC(0-inf) is the area under the concentration-time curve extrapolated to infinity. A low value points to less exposure. By CL/F is commonly meant clearance divided by bioavailability, as obtained after extravascular dosing.

Data set [1] concerns the target 11-beta-hydroxysteroid dehydrogenase 1 (Homo sapiens, UniProt P28845). Kind of data set: Inhibition of 11beta-HSD1 in human liver microsomes using [3H]cortisone as substrate preincubated for 15 mins followed by substrate addition and measured after 30 mins by scintillation proximity assay. (In general: Liver microsomes are a subcellular fraction often used to study metabolism.)

Data set [2] has as its target T1, 11-beta-hydroxysteroid dehydrogenase type 2 (Homo sapiens, UniProt P80365).
T1 sequence (P80365 whole entry): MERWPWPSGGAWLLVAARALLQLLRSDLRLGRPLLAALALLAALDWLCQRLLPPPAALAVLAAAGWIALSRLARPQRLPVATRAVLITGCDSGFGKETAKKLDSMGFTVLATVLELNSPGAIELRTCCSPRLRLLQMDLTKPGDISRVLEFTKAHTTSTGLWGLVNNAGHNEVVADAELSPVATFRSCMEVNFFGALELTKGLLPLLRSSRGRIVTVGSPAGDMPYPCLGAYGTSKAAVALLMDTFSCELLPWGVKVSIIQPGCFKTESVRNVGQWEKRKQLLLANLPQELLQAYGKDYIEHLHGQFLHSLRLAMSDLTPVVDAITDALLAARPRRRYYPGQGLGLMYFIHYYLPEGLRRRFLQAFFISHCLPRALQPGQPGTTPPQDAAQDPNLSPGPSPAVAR
As to the kind of experiment: Inhibition of human full-length 11beta-HSD2 expressed in HEK293 cells using cortisol as substrate after 2 hrs by LC-MS analysis. The format is cell-based.

A short description of data set [3]: Stability in human liver microsomes at 10 uM after 30 mins by LC-MS/MS analysis. The format is ADME, microsome. Conditions: read-out: Stability.
Data set [4] deals with T2, 11-beta-hydroxysteroid dehydrogenase type 2 (Homo sapiens) (UniProt P80365).
T2 sequence (whole entry): T1 sequence (P80365 whole entry)
As to the kind of experiment: Inhibition of human full-length 11beta-HSD2 expressed in HEK293 cells at 10 uM using cortisol as substrate after 2 hrs by LC-MS analysis relative to control. It is filed as cell-based.

Data set [5] can be described thus: Effective permeability by PAMPA. The format is ADME. Conditions: read-out: Peff.
For data set [6], the target named is 11-beta-hydroxysteroid dehydrogenase 1 (Mus musculus, UniProt P50172). Kind of data set: Inhibition of 11beta-HSD1 in CD1 mouse liver microsomes using cortisone as substrate preincubated for 15 mins followed by substrate addition and measured after 30 mins by LC-MS analysis.
A short description of data set [7]: Stability in mouse liver microsomes at 10 uM after 30 mins by LC-MS/MS analysis. The settings on record: read-out: Stability. The format is ADME, microsome.
Data set [8] is described as follows: Drug uptake in CD1 mouse brain at 21 mg/kg, po after 3 hrs by UPLC-MS/MS analysis. The format is ADME, organism-based. Conditions: read-out: Drug uptake.
For data set [9], the system named is Mus musculus. Kind of data set: Cognitive enhancing effect in SAMP8 mouse assessed as prevention of short-term memory deficits by measuring time spent on exploring novel objects at 21 mg/kg, po for 4 days and measured during 10 mins retention trial after 2 hrs by novel object recognition test. It is filed as functional, organism-based.
In data set [10] the test system is Mus musculus. As to the kind of experiment: Cognitive enhancing effect in SAMP8 mouse assessed as prevention of short-term memory deficits by measuring time spent on exploring novel objects at 21 mg/kg, po for 4 days and measured during 10 mins retention trial after 24 hrs by novel object recognition test. It is filed as functional, organism-based.
Data set [11] deals with Mus musculus. Kind of data set: Downregulation of iNOS mRNA levels in SAMP8 mouse at 21 mg/kg, po for 4 days by qRT-PCR analysis. It is filed as functional, organism-based. In general terms: In qPCR the cycle at which signal appears reflects the starting amount.
For data set [12], the system named is Mus musculus. As to the kind of experiment: Downregulation of IL-6 mRNA levels in SAMP8 mouse at 21 mg/kg, po for 4 days by qRT-PCR analysis. It is filed as functional, organism-based.
In data set [13] the test system is Mus musculus. Kind of data set: Downregulation of APP beta-secretase C-terminal fragment protein levels in SAMP8 mouse brain at 21 mg/kg, po for 4 days by Western blot analysis. The format is functional, organism-based. (In general: A western blot detects proteins with antibodies after separation by electrophoresis.)
The test system of data set [14] is Mus musculus. As to the kind of experiment: Upregulation of IDE protein levels in SAMP8 mouse brain at 21 mg/kg, po for 4 days by Western blot analysis. The format is functional, organism-based.
Data set [15] concerns Mus musculus. As to the kind of experiment: Effect on pre-APP mRNA levels in SAMP8 mouse brain at 21 mg/kg, po for 4 days by qRT-PCR analysis. It is filed as functional, organism-based.
Data set [16] deals with Mus musculus. Kind of data set: Effect on ADAM10 mRNA levels in SAMP8 mouse brain at 21 mg/kg, po for 4 days by qRT-PCR analysis. The format is functional, organism-based.
Data set [17] concerns Mus musculus. Kind of data set: Effect on Bace1 mRNA levels in SAMP8 mouse brain at 21 mg/kg, po for 4 days by qRT-PCR analysis. The format is functional, organism-based.
Data set [18] is described as follows: Plasma concentration in CD1 mouse at 21 mg/kg, po after 0.5 hrs by UPLC-MS/MS analysis. It is filed as ADME, organism-based.
Data set [19] can be described thus: Plasma concentration in CD1 mouse at 21 mg/kg, po after 1 hr by UPLC-MS/MS analysis. It is filed as ADME, organism-based.
Data set [20] is described as follows: Plasma concentration in CD1 mouse at 21 mg/kg, po after 3 hrs by UPLC-MS/MS analysis. The format is ADME, organism-based.
Data set [21] can be described thus: Plasma concentration in CD1 mouse at 21 mg/kg, po after 5 hrs by UPLC-MS/MS analysis. It is filed as ADME, organism-based.
The test system of data set [22] is Mus musculus. As to the kind of experiment: Upregulation of PSD95 mRNA levels in SAMP8 mouse at 21 mg/kg, po for 4 days by qRT-PCR analysis. It is filed as functional, organism-based.
In data set [23] the test system is Mus musculus. Kind of data set: Effect on pre-APP protein levels in SAMP8 mouse brain at 21 mg/kg, po for 4 days by Western blot analysis. The format is functional, organism-based.
Data set [24] is described as follows: Ratio of plasma concentration in CD1 mouse at 21 mg/kg, po after 0.5 hrs by UPLC-MS/MS analysis to IC50 for inhibition of 11beta-HSD1 in human liver microsomes. The settings on record: in vivo. It is filed as organism-based.
Data set [25] in a line: Elimination rate constant in CD1 mouse at 21 mg/kg, po by UPLC-MS/MS analysis. The format is ADME, organism-based. Conditions: in vivo.
Data set [26] in a line: Apparent half-life of the terminal disposition phase in CD1 mouse at 21 mg/kg, po by UPLC-MS/MS analysis. The settings on record: in vivo, read-out: t1/2 lambda z (converted). The format is ADME, organism-based.
Data set [27] in a line: Tmax in CD1 mouse at 21 mg/kg, po by UPLC-MS/MS analysis. It is filed as ADME, organism-based. Conditions: in vivo.
The nature of data set [28]: Cmax in CD1 mouse at 21 mg/kg, po by UPLC-MS/MS analysis. It is filed as ADME, organism-based. On the set-up: dose 21 mg/kg, route oral. Conditions: in vivo.
In data set [29] the test system is Mus musculus. Kind of data set: Dose normalized Cmax in CD1 mouse at 21 mg/kg, po by UPLC-MS/MS analysis. It is filed as ADME, organism-based. Conditions: in vivo.
Data set [30] in a line: AUClast in CD1 mouse at 21 mg/kg, po by UPLC-MS/MS analysis. The format is ADME, organism-based. Also noted: dose 21 mg/kg, time 0 - last, route oral. Conditions: in vivo.
Data set [31] in a line: AUC (infinity) in CD1 mouse at 21 mg/kg, po by UPLC-MS/MS analysis. On the set-up: dose 21 mg/kg, time infinity, route oral. The settings on record: in vivo. It is filed as ADME, organism-based.
The test system of data set [32] is Mus musculus. Kind of data set: Dose normalized AUC (infinity) in CD1 mouse at 21 mg/kg, po by UPLC-MS/MS analysis. The format is ADME, organism-based. The settings on record: in vivo.
In data set [33] the test system is Mus musculus. Kind of data set: Extrapolated AUC in CD1 mouse at 21 mg/kg, po by UPLC-MS/MS analysis. It is filed as ADME, organism-based. Conditions: in vivo.
The nature of data set [34]: Apparent volume of distribution during terminal phase in CD1 mouse at 21 mg/kg, po by UPLC-MS/MS analysis. Conditions: in vivo, read-out: Vz/F. The format is ADME, organism-based.
The nature of data set [35]: Apparent oral clearance in CD1 mouse at 21 mg/kg, po by UPLC-MS/MS analysis. The format is ADME, organism-based. The settings on record: in vivo.

Sequence of 11-beta-hydroxysteroid dehydrogenase 1 (Homo sapiens, UniProt P28845) (P28845 whole entry): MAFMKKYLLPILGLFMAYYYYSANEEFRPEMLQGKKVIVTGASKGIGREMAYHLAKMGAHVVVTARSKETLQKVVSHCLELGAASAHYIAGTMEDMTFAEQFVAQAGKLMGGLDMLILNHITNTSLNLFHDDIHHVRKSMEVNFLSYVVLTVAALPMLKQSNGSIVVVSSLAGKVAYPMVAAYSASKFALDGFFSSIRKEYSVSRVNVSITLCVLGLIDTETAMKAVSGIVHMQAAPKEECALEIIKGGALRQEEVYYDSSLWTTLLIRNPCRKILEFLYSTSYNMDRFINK
Sequence of 11-beta-hydroxysteroid dehydrogenase 1 (Mus musculus, UniProt P50172) (P50172 whole entry): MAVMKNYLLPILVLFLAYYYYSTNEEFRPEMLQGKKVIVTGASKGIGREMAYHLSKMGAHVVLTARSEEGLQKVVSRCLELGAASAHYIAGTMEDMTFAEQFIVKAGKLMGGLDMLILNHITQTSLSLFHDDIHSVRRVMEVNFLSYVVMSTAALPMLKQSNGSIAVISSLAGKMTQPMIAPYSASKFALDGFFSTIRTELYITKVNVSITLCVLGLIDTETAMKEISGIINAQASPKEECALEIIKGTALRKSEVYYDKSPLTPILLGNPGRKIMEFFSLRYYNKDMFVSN

As to `O=C(C1CCCCC1)N1CC2C3CCC(CC3)C2C1` (configuration not stated), the IC50 in data set [1] was 20 nM; in data set [2] it was 100 to 1000 nM. The remaining at 0.5 h, 10 µM in [3] was found to be 17%.

In [4], `CCN1CCC[C@@H]1C(=O)NC1C2CC3CC(C2)CC1C3` (some centres not stated) yielded an inhibition of 88%. In addition, the remaining at 0.5 h, 10 µM in [3] is 79%.

As to `O=C(C1CCCCC1)N1CC2C3C=CC(C4CC34)C2C1` (configuration not stated), the IC50 in data set [1] was 20 nM; in [2], 1000 to 10000 nM. Besides, the remaining at 0.5 h, 10 µM in data set [3] was 27%.

On to `O=C(C1CCCCC1)N1CC2C3C=CC(C3)C2C1` (configuration not stated), for which the results for the IC50 in data set [1] and in data set [2] were 20 nM and less than 100 nM, respectively. Further, the remaining at 0.5 h, 10 µM in data set [3] came out at 60%.

On to `O=C(C1CCCCC1)N1CC2C3CCC(C3)C2C1` (configuration not stated), for which the IC50 in data set [1] was 90 nM; in data set [2], less than 100 nM. For the same molecule, the remaining at 0.5 h, 10 µM in [3] worked out at 37%. Besides, the Papp in data set [5] turned out to be 5.2 ×10⁻⁶ cm/s.

For the molecule `O=C(C1CCCCC1)N1CC2C3CCC(C4CC34)C2C1` (configuration not stated), the values for the half-maximal inhibitory concentration (IC50) in data set [1], in data set [2] and in data set [6] were 30 nM, less than 100 nM and 80 nM, respectively. In addition, the remaining at 0.5 h, 10 µM is 94% in data set [3] and 93% in data set [7]. For the same molecule, in [5], the Papp is more than 30 ×10⁻⁶ cm/s. The figures for the concentration at 3 h in data set [8] and in data set [20] were 1.45 ng/mL and 2.12 ng/mL, respectively. Besides, the result in the data set on Mus musculus [9], in the data set with Mus musculus [10], in the data set with Mus musculus [11], in the data set with Mus musculus [12], in the data set on Mus musculus [13] and in the data set on Mus musculus [14] was Active. Also, the result in the data set with Mus musculus [22] was Active. Also, the result with Mus musculus [15], in the data set on Mus musculus [16], in the data set on Mus musculus [17] and with Mus musculus [23] was inactive. In data set [18], this molecule showed a concentration at 0.5 h of 44.6 ng/mL. In [19], this molecule had a concentration at 1 h of 10.3 ng/mL. In [21], this molecule returned a concentration at 5 h of 0.28 ng/mL. Moreover, the Ratio in data set [24] came out at 5. In [25], the k el is 0.00025 s⁻¹. Besides, the half-life in data set [26] was 46.3 min. For the same molecule, the Tmax in [27] was 30 min. Moreover, the Cmax in [28] was 44.6 ng/mL. In the data set with Mus musculus [29], this molecule showed a Cmax/dose of 2.123 kg·ng/mL/mg. Further, the exposure AUC(0-t) in [30] stood at 39.7 ng·h/mL. For the same molecule, the AUC(0-inf) in data set [31] is 40 ng·h/mL. Besides, the AUC/dose in the data set on Mus musculus [32] was 1.906 kg·ng·h/mL/mg. For the same molecule, the “%AUCextra” value in the data set on Mus musculus [33] is reported as 0.787%. Moreover, in [34], the Vd/F is 583 L/kg. Moreover, in data set [35], the CL/F is 525 L/h/kg.

With `O=C(C1CCCCC1)N1CC2C3C=CC(CC3)C2C1` (configuration not stated), in [3], the remaining at 0.5 h, 10 µM amounted to 44%.

As for `O=C(C1CCCCC1)N1CC23CC=CCC2(CC=CC3)C1` (configuration not stated), half-maximal inhibition in [1] (IC50) was put at 40 nM. The inhibition in [4] was 100%.
